Results from US7060444B1, “Zone 3 necrosis associated markers and method of use thereof” (CuraGen Corporation, priority 2002, dated 2006).
Where two headings read alike, the source gives them in different places.

Legend:
rat livers [1] = tested on: rat livers
Text: (§1) Each compound was delivered orally on a daily basis at a high dose (tox dose) and a 1/10 low dose (mode dose) for up to 14 days. Five male rats/dose/time were randomly assigned to sacrifice on days 1, 3, 7, and 14.
(§2) In order to construct in vivo models, the pathology of each sample had to be determined. Pathology was assigned to each liver sample by the pathologists at Bayer's Stillwell, Kans. facility. Criteria for inclusion of a compound into a particular mode included the following: • i.

liver [2] = conditions: once converted to reactive metabolites; cited from earlier work
rat livers [3] = assay: Induction of Zone 3 Necrosis in vivo, liver pathology annotation; conditions: for Zone 3 Necrosis in vivo: Pathology Present: sampled 1, 3, 7, 14 d
Text: as §1, §2

liver [4] = assay: In vivo pathology annotation: Hypertrophy; set-up: species or system rat; conditions: in vivo compound annotation
Text: Hypertrophy: Increase in cell size and liver weight. • iv. […] Steatosis: Increase in lipid accumulation or “vacuolar degeneration.” • vii. […] Two approaches were used.

liver [5] = conditions: rats, through a sequence of events that begin with necrosis; cited from earlier work
[6] = rat primary hepatocytes, 250 microM
[7] = rat primary hepatocytes, 100 microM
[8] = rat primary hepatocytes, 40 microM
[9] = rat primary hepatocytes, 20 microM
[10] = rat primary hepatocytes, 1000 microM
[11] = rat primary hepatocytes, 2 microM
[12] = rat primary hepatocytes, 50 microM

Structure (SMILES): Brc1cccc(Br)c1 [1,3-Dibromobenzene]
- Zone 3 Necrosis in vivo: Pathology Present (rat livers [1]; male): 1 d
- Zone 3 Necrosis Pathology (Rat primary hepatocytes; [6]): Present

Structure (SMILES): Clc1ccc(Cl)cc1 [1,4-dichlorobenzene]
- Zone 3 Necrosis Pathology (Rat primary hepatocytes; [7]): Absent

Structure (SMILES): Cc1cc(N=Nc2ccccc2)ccc1N(C)C [3-methyl-4-(dimethylamino)azobenzene]
- Zone 3 Necrosis Pathology (Rat primary hepatocytes; rat primary hepatocytes, 1.6 microM): Absent

Structure (SMILES): Cc1ccc2cc3c(ccc4ccccc43)c3c2c1CC3 [3-methylcholanthrene]
- Zone 3 Necrosis Pathology (Rat primary hepatocytes; [8]): Absent

Structure (SMILES): CC(=O)Nc1ccc(O)cc1 [Acetaminophen]
- zonal necrosis of the liver produced (liver [2]): produce mainly zone 3 necrosis

Structure (SMILES): CC(=O)Oc1ccccc1C(=O)O [Aspirin]
- Zone 3 Necrosis Pathology (Rat primary hepatocytes; rat primary hepatocytes, 55.5 microM): Absent

Structure (SMILES): [N-]=[N+]=CC(=O)OC[C@H](N)C(=O)O [Azaserine]
- Zone 3 Necrosis in vivo: Pathology Present (rat livers [3]; High 100 mg/kg (ip)): 1,3 d
- Zone 3 Necrosis Pathology (Rat primary hepatocytes; rat primary hepatocytes, 500 microM): Present

Structure (SMILES): CC[N+](C)(C)Cc1ccccc1Br [Bretylium]
- Zone 3 Necrosis Pathology (Rat primary hepatocytes): Absent

Structure (SMILES): Brc1ccccc1 [Bromobenzene]
- Zone 3 Necrosis in vivo: Pathology Present (rat livers [1]; male): 12, 48 h
- Zone 3 Necrosis Pathology (Rat primary hepatocytes; rat primary hepatocytes, 3000 microM): Present

Structure (SMILES): ClC(Cl)(Cl)Cl [CCl4, carbon tetrachloride]
- zonal necrosis of the liver produced (liver [2]): produce mainly zone 3 necrosis

Structure (SMILES): CO/N=C(\C(=O)N[C@@H]1C(=O)N2C(C(=O)O)=C(COC(N)=O)CS[C@H]12)c1ccco1 [Cefuroxime]
- Zone 3 Necrosis Pathology (Rat primary hepatocytes; rat primary hepatocytes, 224 microM): Absent

Structure (SMILES): [Ce+3].[Cl-].[Cl-].[Cl-] [Cerium (III) Chloride]
- Zone 3 Necrosis Pathology (Rat primary hepatocytes; [9]): Present

Structure (SMILES): ClC1=C(Cl)C2(Cl)C3C(Cl)C(Cl)CC3C1(Cl)C2(Cl)Cl (stereo not shown) [Chlordane]
- Zone 3 Necrosis Pathology (Rat primary hepatocytes; rat primary hepatocytes, 8 microM): Absent

Structure (SMILES): CCOC(=O)C(C)(C)Oc1ccc(Cl)cc1 [Clofibrate]
- hypertrophy in vivo (liver [4]): produced hypertrophy in vivo
- Zone 3 Necrosis Pathology (Rat primary hepatocytes; [7]): Absent

Structure (SMILES): Clc1cccc(Cl)c1N=C1NCCN1 [Clonidine]
- Zone 3 Necrosis Pathology (Rat primary hepatocytes): Absent

Structure (SMILES): O=c1ccc2ccccc2o1 [Coumarin]
- Zone 3 Necrosis in vivo: Pathology Present (rat livers [3]; High 150 mg/kg/d): 3 d
- Zone 3 Necrosis Pathology (Rat primary hepatocytes; [6]): Present

Structure (SMILES): C[C@@H]1C[C@H]2[C@@H]3CCC4=CC(=O)C=C[C@]4(C)[C@@]3(F)[C@@H](O)C[C@]2(C)[C@@]1(O)C(=O)CO [Dexamethasone]
- Zone 3 Necrosis Pathology (Rat primary hepatocytes): Absent

Structure (SMILES): CCN(CC)N=O [Diethylnitrosamine]
- hepatocellular carcinoma (liver [5]): show evidence of producing hepatocellular carcinoma in rats
- Zone 3 Necrosis in vivo: Pathology Present (rat livers [1]): 1, 3, 7 d
- Zone 3 Necrosis Pathology (Rat primary hepatocytes; rat primary hepatocytes, 300 microM): Present

Structure (SMILES): CN(C)C=O [Dimethylformamide]
- Zone 3 Necrosis in vivo: Pathology Present (rat livers [1]; male): 48 h
- Zone 3 Necrosis Pathology (Rat primary hepatocytes; rat primary hepatocytes, 5000 microM): Present

Structure (SMILES): CN(C)N=O [Dimethylnitrosamine]
- Zone 3 Necrosis in vivo: Pathology Present (rat livers [1]): 7, 14 d
- Zone 3 Necrosis Pathology (Rat primary hepatocytes; [10]): Present

Structure (SMILES): c1cc[n+]2c(c1)-c1cccc[n+]1CC2 [Diquat]
- Zone 3 Necrosis in vivo: Pathology Absent (rat livers [1]; male): 6, 12, 24, 48 h

Structure (SMILES): CC(C)N(CCC(C(N)=O)(c1ccccc1)c1ccccn1)C(C)C (stereo not shown) [Disopyramide]
- Zone 3 Necrosis Pathology (Rat primary hepatocytes; rat primary hepatocytes, 3 microM): Absent

Structure (SMILES): COc1cccc2c1C(=O)c1c(O)c3c(c(O)c1C2=O)C[C@@](O)(C(=O)CO)C[C@@H]3O[C@H]1C[C@H](N)[C@H](O)[C@H](C)O1 [Doxorubicin]
- Zone 3 Necrosis Pathology (Rat primary hepatocytes): Absent

Structure (SMILES): CCC(=O)O[C@H]1[C@H](O[C@@H]2[C@@H](C)[C@H](O[C@H]3C[C@@](C)(OC)[C@@H](O)[C@H](C)O3)[C@@H](C)C(=O)O[C@H](CC)[C@@](C)(O)[C@H](O)[C@@H](C)C(=O)[C@H](C)C[C@@]2(C)O)O[C@H](C)C[C@@H]1N(C)C.CCCCCCCCCCCCOS(=O)(=O)O [Erythromycin Estolate (EE), Erythromycin Estolate]
- Zone 3 Necrosis Pathology (Rat primary hepatocytes; [9]): Absent

Structure (SMILES): CCO [Ethanol]
- Zone 3 Necrosis Pathology (Rat primary hepatocytes): Absent

Structure (SMILES): CCSCC[C@H](N)C(=O)O [Ethionine]
- Zone 3 Necrosis Pathology (Rat primary hepatocytes; [10]): Present

Structure (SMILES): CCC1(C)CC(=O)NC1=O (stereo not shown) [Ethosuximide]
- Zone 3 Necrosis Pathology (Rat primary hepatocytes; [10]): Absent

Structure (SMILES): OC(c1ccc(Cl)cc1)(c1cncnc1)c1ccccc1Cl (stereo not shown) [Fenarimol]
- Zone 3 Necrosis Pathology (Rat primary hepatocytes; [9]): Absent

Structure (SMILES): OC(Cn1cncn1)(Cn1cncn1)c1ccc(F)cc1F [Fluconazole]
- Zone 3 Necrosis Pathology (Rat primary hepatocytes): Absent

Structure (SMILES): CCCC[C@@H](C)[C@@H](OC(=O)C[C@@H](CC(=O)O)C(=O)O)[C@H](C[C@@H](C)C[C@H](O)CCCC[C@@H](O)C[C@H](O)[C@H](C)N)OC(=O)C[C@@H](CC(=O)O)C(=O)O [Fumonisin B(1)]
- hepatocellular carcinoma (liver [5]): show evidence of producing hepatocellular carcinoma in rats

Structure (SMILES): NCC1(CC(=O)O)CCCCC1 [Gabapentin]
- Zone 3 Necrosis Pathology (Rat primary hepatocytes; [11]): Absent

Structure (SMILES): CC(C)Cc1ccc(C(C)C(=O)O)cc1 (stereo not shown) [Ibuprofen]
- Zone 3 Necrosis Pathology (Rat primary hepatocytes; [12]): Absent

Structure (SMILES): CC(=O)N1CCN(c2ccc(OCC3COC(Cn4ccnc4)(c4ccc(Cl)cc4Cl)O3)cc2)CC1 (stereo not shown) [Ketoconazole]
- Zone 3 Necrosis in vivo: Pathology Absent (rat livers [3]; male, liver, oral, 10 mg/kg/d): 1, 3 d
- Zone 3 Necrosis Pathology (Rat primary hepatocytes; [11]): Absent

Structure (SMILES): CCC1(c2ccccc2)NC(=O)N(C)C1=O (stereo not shown) [Mephenytoin]
- Zone 3 Necrosis Pathology (Rat primary hepatocytes; rat primary hepatocytes, 14.2 microM): Absent

Structure (SMILES): Nc1cc(N2CCCCC2)nc(N)[n+]1[O-] [Minoxidil]
- Zone 3 Necrosis Pathology (Rat primary hepatocytes; rat primary hepatocytes, 0.166 microM): Absent

Structure (SMILES): ClC1(Cl)C2(Cl)C3(Cl)C4(Cl)C(Cl)(Cl)C5(Cl)C3(Cl)C1(Cl)C5(Cl)C24Cl (stereo not shown) [Mirex]
- Zone 3 Necrosis Pathology (Rat primary hepatocytes; [12]): Absent

Structure (SMILES): [Mo] [Molybdenum]
- Zone 3 Necrosis in vivo: Pathology Present (rat livers [3]; High 500 mg/kg/d): 3 d
- Zone 3 Necrosis Pathology (Rat primary hepatocytes; [12]): Present

Structure (SMILES): C[C@H]1C(=O)O[C@@H]2CCN3CC=C(COC(=O)[C@](C)(O)[C@]1(C)O)[C@H]23 [Monocrotaline]
- Zone 3 Necrosis Pathology (Rat primary hepatocytes; [7]): Present

Structure (SMILES): O=NN1CCCCC1 [N-Nitrosopiperidine]
- Zone 3 Necrosis Pathology (Rat primary hepatocytes; rat primary hepatocytes, 3200 microM): Present

Structure (SMILES): CCCCN(CCCC)N=O [N-nitrosodibutylamine]
- Zone 3 Necrosis Pathology (Rat primary hepatocytes; rat primary hepatocytes, 200 microM): Absent

Structure (SMILES): O=NN1CCOCC1 [N-nitrosomorpholine]
- Zone 3 Necrosis Pathology (Rat primary hepatocytes; rat primary hepatocytes, 3750 microM): Present

Structure (SMILES): O=NN(CCO)CCO [Nitrosodiethanolamine]
- Zone 3 Necrosis Pathology (Rat primary hepatocytes; [10]): Absent

Structure (SMILES): Oc1c(Cl)c(Cl)c(Cl)c(Cl)c1Cl [Pentachlorophenol]
- Zone 3 Necrosis Pathology (Rat primary hepatocytes; rat primary hepatocytes, 19 microM): Absent

Structure (SMILES): COc1cc2nc(N3CCN(C(=O)c4ccco4)CC3)nc(N)c2cc1OC [Prazosin]
- Zone 3 Necrosis Pathology (Rat primary hepatocytes): Absent

Structure (SMILES): CC(=O)[C@H]1CC[C@H]2[C@@H]3CC=C4C[C@@H](O)CC[C@]4(C)[C@H]3CC[C@]12C [Pregnenolone]
- Zone 3 Necrosis Pathology (Rat primary hepatocytes; rat primary hepatocytes, 38 microM): Absent

Structure (SMILES): c1ccncc1 [Pyridine]
- Zone 3 Necrosis in vivo: Pathology Present (rat livers [1]; male): 14 d
- Zone 3 Necrosis Pathology (Rat primary hepatocytes): Present

Structure (SMILES): CO[C@H]1/C=C/O[C@@]2(C)Oc3c(C)c(O)c4c(O)c(c(/C=N/N5CCN(C)CC5)c(O)c4c3C2=O)NC(=O)/C(C)=C\C=C\[C@H](C)[C@H](O)[C@@H](C)[C@@H](O)[C@@H](C)[C@H](OC(C)=O)[C@@H]1C [Rifampicin]
- Zone 3 Necrosis Pathology (Rat primary hepatocytes): Absent

Structure (SMILES): CC(=N)S [Thioacetamide]
- Zone 3 Necrosis Pathology (Rat primary hepatocytes; rat primary hepatocytes, 2000 microM): Present

Structure (SMILES): NC(=S)c1ccccc1 [Thiobenzamide]
- Zone 3 Necrosis Pathology (Rat primary hepatocytes; [8]): Present
